Legend:
[1] = system: PC3 prostate cancer cells; test: XTT cell proliferation assay; format: cell-based; conditions: Homo sapiens; anti-proliferative effect, FIG. 6
Description: Cytotoxicity Assay. Cytotoxicity of ScA was assessed using the XTT cell proliferation assay. Briefly cells were plated on 96 well plates (5,000 per well) and incubated over night at 37° C. to allow for attachment and spreading. After 24 h, ScA was added from a DMSO stock, previously frozen at −80C as added directly from serial dilutions in DMSO at concentrations ranging from 100 uM to 100 fM. After 72 h, XTT (Aldrich Chemicals) was added to a final concentration of 250 ug/well. The plates were then incubated under standard tissue culture conditions until the control wells (DMSO) reached an OD value between 1.0-1.5. as measured at 450 nm using a microtiter plate reader. The cell viability-drug dilution profiles were obtained from sigma plots, and drug concentrations which inhibited growth by 50% were calculated from multiple runs. (IC50)

A-549 cells = test: cell toxicity studies by microscopy; format: cell-based, human; conditions: for cell state by microscopy: 24 h
Description: FIG. 7 illustrates cell toxicity studies using A-549 cells and somocystinamide A (ScA); FIG. 7A illustrates microscopy images of cells with DMSO (1%) as a control at 24 h; FIG. 7B-ScA (WG-144) on A-549 cells at 100 nM 24 h; FIG. 7C-ScA (WG-144) on A549 cells 1.0 uM 24 h; FIG. 7D-ScA (WG-144) on A549 cells, 10 uM, 24 h. In FIG. 7A, the negative control (no ScA) the live cells are confluent.
FIG. 28(B): A549 cells were fixed and costained using antibodies directed against ceramide (red channel) (Bars in A/B=[…]). Arrows indicate regions of “blebbing.” The nuclear compartment was visualized using DAPI to stain DNA (blue channel). The assessments were performed two hours after treatment with 300 nM ScA. FIG. 28(C): Immunoblot analysis of Jurkat cells was performed following treatment with 100 nM ScA. 25 μg of cell lysates was probed for caspases 8, 3 and 9 and for PARP and actin (loading control) as indicated. FIG. 28(D): Caspase 8 deficient (Casp 8), FADD deficient (FADD −) or parental Jurkat cells (Jurkat) were incubated with 50 or 300 nM for 6 hours and analyzed for the presence of apoptotic cells via FACs analysis of DNA content. Results shown are the mean and standard error of triplicate determinations. FIG. 28(E): A549 cells subjected to lentivirus-delivered shRNA-mediated knockdown of caspase 8, or treated with a scrambled shRNA lentivirus. Cells were then cultured in the presence of increasing doses of ScA, as indicated. Viability was measured by XTT assay after 72 hours, and normalized to controls not treated with drug. FIG. 28(F): similarly, the viability of neuroblastoma cultures deficient in caspase expression, or reconstituted for caspase 8 expression, was determined as for the A549 cells above. Both experiments are representative, with each point shown the mean±SE of triplicate wells.

What does the source list for `C=CC/C=C/N(C)C(=O)CCCCCCCC/C=C/[C@H](CSSC[C@@H](/C=C/CCCCCCCCC(=O)N(C)/C=C/CC=C)NC(C)=O)NC(C)=O` [somocystinamide A, Somocystinamide A]?
IC50 [1]: 970 nM; cell morphology, bright field microscopy (A-549 cells; 100 nM ScA, FIG. 28A): induces a blebbing morphology; cell state by microscopy (A-549 cells; 100 nM): transitioning to apoptosis; cell state by microscopy (A-549 cells; 1.0 uM): in a state of apoptosis but no lysis; cell state by microscopy (A-549 cells; 10 uM): in total lysis
